Measured values reported in patent publication US12310973B2, “Administration and dosage of diaminophenothiazines” (WisTa Laboratories Ltd., priority 2016, dated 2025).

Tested on: mild to moderate AD patients
Assay: Phase 3 trial in mild to moderate AD: safety outcomes (adverse events)
Format: in vivo, human
Settings: for Maximum mean change in haemoglobin from baseline: at 6 weeks
Procedure: Patients were monitored throughout for adverse events (AEs) and clinical laboratory testing, physical and neurological examinations and 12-lead electrocardiograms were performed at all clinic visits (screening, baseline and Weeks 2, 6, 13, 26, 39, 52, 65 and 69). Patients were also assessed at all visits for suicidal ideation and intent, and were systematically assessed for signs of serotonin toxicity.

[1] = high dose LMTM (75 or 125 mg b.i.d.)

## CN(C)c1ccc2c(c1)Sc1cc(N(C)C)ccc1N2 [LMTM, leuco-methythioninium bis(hydromethanesulfonate)]
4 mg b.i.d.
  Maximum mean change in haemoglobin from baseline: -0.01 g/L
75 mg b.i.d. (n = 267)
  AESI: ARIA, %: (1.5) %
  AESI: Methemoglobinemia, hemolytic anemia, and/or Heinz bodies, %: (0) %
  AESI: “Serotonin syndrome”, %: (0.7) %
  Anemia, % of patients: (8.2%)
  Anemia, number of patients: 22
  At least one TEAE, % of patients: (83.9%)
  At least one TEAE, number of patients: 224
  Blood and lymphatic system disorders, % of patients: (10.9%)
  Blood and lymphatic system disorders, number of patients: 29
  Blood folate decreased, % of patients: (6.7%)
  Blood folate decreased, number of patients: 18
  Cough, % of patients: (5.2%)
  Cough, number of patients: 14
  Deaths, %: (1.1) %
  Diarrhea, % of patients: (23.6%)
  Diarrhea, number of patients: 63
  Dysuria, % of patients: (2.6%)
  Dysuria, number of patients: 7
  Gastrointestinal disorders, % of patients: (39.3%)
  Gastrointestinal disorders, number of patients: 105
  Infections and infestations, % of patients: (31.1%)
  Infections and infestations, number of patients: 83
  Investigations, % of patients: (32.6%)
  Investigations, number of patients: 87
  Nausea, % of patients: (8.2%)
  Nausea, number of patients: 22
  Other SUSARs, %: (0.7) %
  Pollakiuria, % of patients: (5.6%)
  Pollakiuria, number of patients: 15
  Renal and urinary disorders, % of patients: (22.8%)
  Renal and urinary disorders, number of patients: 61
  Respiratory, thoracic and mediastinal disorders, % of patients: (12.0%)
  Respiratory, thoracic and mediastinal disorders, number of patients: 32
  Urinary incontinence, % of patients: (6.7%)
  Urinary incontinence, number of patients: 18
  Urinary tract infection, % of patients: (10.9%)
  Urinary tract infection, number of patients: 29
  Vomiting, % of patients: (9.4%)
  Vomiting, number of patients: 25
75 mg b.i.d.
  Maximum mean change in haemoglobin from baseline: -0.47 g/L
125 mg b.i.d. (n = 264)
  AESI: ARIA, %: (0.4) %
  AESI: Methemoglobinemia, hemolytic anemia, and/or Heinz bodies, %: (0.4) %
  AESI: “Serotonin syndrome”, %: (0) %
  Anemia, % of patients: (5.7%)
  Anemia, number of patients: 15
  At least one TEAE, % of patients: (86.7%)
  At least one TEAE, number of patients: 229
  Blood and lymphatic system disorders, % of patients: (9.5%)
  Blood and lymphatic system disorders, number of patients: 25
  Blood folate decreased, % of patients: (7.2%)
  Blood folate decreased, number of patients: 19
  Cough, % of patients: (4.2%)
  Cough, number of patients: 11
  Deaths, %: (1.1) %
  Diarrhea, % of patients: (25.4%)
  Diarrhea, number of patients: 67
  Dysuria, % of patients: (10.2%)
  Dysuria, number of patients: 27
  Gastrointestinal disorders, % of patients: (42.0%)
  Gastrointestinal disorders, number of patients: 111
  Infections and infestations, % of patients: (28.8%)
  Infections and infestations, number of patients: 76
  Investigations, % of patients: (30.3%)
  Investigations, number of patients: 80
  Nausea, % of patients: (7.2%)
  Nausea, number of patients: 19
  Other SUSARs, %: (1.5) %
  Pollakiuria, % of patients: (6.8%)
  Pollakiuria, number of patients: 18
  Renal and urinary disorders, % of patients: (24.6%)
  Renal and urinary disorders, number of patients: 65
  Respiratory, thoracic and mediastinal disorders, % of patients: (8.3%)
  Respiratory, thoracic and mediastinal disorders, number of patients: 22
  Urinary incontinence, % of patients: (4.5%)
  Urinary incontinence, number of patients: 12
  Urinary tract infection, % of patients: (9.8%)
  Urinary tract infection, number of patients: 26
  Vomiting, % of patients: (6.8%)
  Vomiting, number of patients: 18
125 mg b.i.d.
  Maximum mean change in haemoglobin from baseline: -0.93 g/L
% of the cases, all arms
  Non-fatal SAEs possibly related to treatment: 14%
All arms
  Patients with transient responses indicating a wish to be dead (Columbia Suicide Severity Rating Scale): 26 patients
All arms, evenly distributed between the three treatment groups
  Patients with one or more other non-fatal serious adverse events (SAEs): 97 patients
All arms, no dose relationship
  Patients who developed ARIA during the study, frequency: < 1%
  Patients who developed ARIA during the study, total: 8 patients
All arms, none related to treatment
  Patients who died during the study: 9 patients
All doses
  Haemolytic anemia cases: no case of haemolytic anemia
Both treated with LMTM 75 mg b.i.d., no concomitant serotonergic drug
  Patients with transient symptoms consistent with serotonergic excess: 2 patients
Control 4 mg b.i.d. (n = 354)
  AESI: ARIA, %: (0.8) %
  AESI: Methemoglobinemia, hemolytic anemia, and/or Heinz bodies, %: (0.3) %
  AESI: “Serotonin syndrome”, %: (0) %
  Anemia, % of patients: (2.8%)
  Anemia, number of patients: 10
  At least one TEAE, % of patients: (83.6%)
  At least one TEAE, number of patients: 296
  Blood and lymphatic system disorders, % of patients: (4.8%)
  Blood and lymphatic system disorders, number of patients: 17
  Blood folate decreased, % of patients: (5.9%)
  Blood folate decreased, number of patients: 21
  Cough, % of patients: (3.4%)
  Cough, number of patients: 12
  Deaths, %: (0.8) %
  Diarrhea, % of patients: (9.3%)
  Diarrhea, number of patients: 33
  Dysuria, % of patients: (0.8%)
  Dysuria, number of patients: 3
  Gastrointestinal disorders, % of patients: (24.6%)
  Gastrointestinal disorders, number of patients: 87
  Infections and infestations, % of patients: (24.9%)
  Infections and infestations, number of patients: 88
  Investigations, % of patients: (22.6%)
  Investigations, number of patients: 80
  Nausea, % of patients: (4.0%)
  Nausea, number of patients: 14
  Other SUSARs, %: (0.6) %
  Pollakiuria, % of patients: (1.7%)
  Pollakiuria, number of patients: 6
  Renal and urinary disorders, % of patients: (8.2%)
  Renal and urinary disorders, number of patients: 29
  Respiratory, thoracic and mediastinal disorders, % of patients: (7.9%)
  Respiratory, thoracic and mediastinal disorders, number of patients: 28
  Urinary incontinence, % of patients: (2.5%)
  Urinary incontinence, number of patients: 9
  Urinary tract infection, % of patients: (8.2%)
  Urinary tract infection, number of patients: 29
  Vomiting, % of patients: (0.6%)
  Vomiting, number of patients: 2
Control (4 mg b.i.d.)
  Patients with anaemia-related adverse event terms (grouped): 16%
Control arm (4 mg b.i.d.)
  Convulsion (SAE possibly related to treatment), cases: 4
Control patients (4 mg b.i.d.)
  Patients discontinuing for gastrointestinal or urinary adverse events: 1-2%
High dose LMTM
  Patients with anaemia-related adverse event terms (grouped): 22%
[1]
  Patients discontinuing for gastrointestinal adverse events: 9%
  Patients discontinuing for urinary tract adverse events: 3%
Patients also receiving acetylcholinesterase inhibitors (data not shown)
  Incidence of gastrointestinal adverse events with co-medication: about two-fold higher
